Experiments:
Assay type in all cases: in vivo
[1] = tested on: bedstraw (Galium aparine); experiment: Test B pre-/postemergence; set-up: key: 0 is no effect; 10 is complete control
Procedure, shortened: (§1)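 Scored visually 0 (none) to 10 (complete control) against untreated plants after twelve to sixteen greenhouse days. Test chemicals, formulated in surfactant-containing non-phytotoxic solvent, applied to soil after planting and, separately, onto 1- to 4-leaf (2–18 cm) plants.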

[2] = tested on: momingglory (Ipomoea hederacea); experiment: Test B pre-/postemergence; set-up: key: 0 is no effect; 10 is complete control
Procedure, shortened: as §1

[3] = tested on: wheat (Triticum aestivum); experiment: Test B pre-/postemergence; set-up: key: 0 is no effect; 10 is complete control
Procedure, shortened: as §1

[4] = tested on: pigweed (Amaranthus retroflexus); experiment: Test B pre-/postemergence; set-up: key: 0 is no effect; 10 is complete control
Procedure, shortened: as §1

[5] = tested on: sugar beet (Beta vulgaris); experiment: Test B pre-/postemergence; set-up: key: 0 is no effect; 10 is complete control
Procedure, shortened: as §1

[6] = tested on: broadleaf signalgrass (Brachiaria decumbens); experiment: Test B pre-/postemergence; set-up: key: 0 is no effect; 10 is complete control
Procedure, shortened: as §1

[7] = tested on: velvetleaf (Abutilon theophrasti); experiment: Test B pre-/postemergence; set-up: key: 0 is no effect; 10 is complete control
Procedure, shortened: as §1

[8] = tested on: corn (Zea mays); experiment: Test B pre-/postemergence; set-up: key: 0 is no effect; 10 is complete control
Procedure, shortened: as §1

[9] = tested on: rape (Brassica napus); experiment: Test B pre-/postemergence; set-up: key: 0 is no effect; 10 is complete control
Procedure, shortened: as §1

[10] = tested on: cocklebur (Xanthium strumarium); experiment: Test B pre-/postemergence; set-up: key: 0 is no effect; 10 is complete control
Procedure, shortened: as §1

[11] = tested on: giant foxtail (Setaria faberii); experiment: Test B pre-/postemergence; set-up: key: 0 is no effect; 10 is complete control
Procedure, shortened: as §1

[12] = tested on: smallflower flatsedge (Cyperus difformis); experiment: Test B flood test
Procedure, shortened: (§2)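 Flood test on plants grown to the 2-leaf stage; treated plants kept in greenhouse twelve to sixteen days, then visually rated against controls on a 0 (no effect) to 10 (complete control) scale.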

[13] = tested on: rice (Oryza sativa); experiment: Test B flood test
Procedure, shortened: as §2

[14] = tested on: bamyardgrass (Echinochloa crus-galli); experiment: Test B flood test
Procedure, shortened: as §2

[15] = tested on: duck salad (Heteranthera limosa); experiment: Test B flood test
Procedure, shortened: as §2

[16] = Rate 62 g/ha, Postemergence (flood test)
[17] = Rate 125 g/ha, Postemergence, flood test
[18] = Rate 250 g/ha, Postemergence (flood test species)

## Cc1cnc(-c2ccc(C(F)(F)F)cc2)nc1C(Cl)c1cccc(C(F)(F)F)c1 (racemic) [Compound 21]
[1]; Rate 62 g/ha, Postemergence
  Plant response rating, Bedstraw: 5
[1]; Rate 62 g/ha, Preemergence
  Bedstraw plant response rating: 0
[1]; Rate 125 g/ha, Postemergence
  Plant response rating, Bedstraw: 9
[1]; Rate 125 g/ha, Preemergence
  Bedstraw plant response rating: 1
[1]; Rate 250 g/ha, Postemergence
  Plant response rating, Bedstraw: 9
[1]; Rate 250 g/ha, Preemergence
  Plant response rating, Bedstraw: 8
[2]; Rate 62 g/ha, Postemergence
  Plant response rating, Morningglory: 8
[2]; Rate 62 g/ha, Preemergence
  Morningglory plant response rating: 1
[2]; Rate 125 g/ha, Postemergence
  Plant response rating, Morningglory: 8
[2]; Rate 125 g/ha, Preemergence
  Morningglory plant response rating: 1
[2]; Rate 250 g/ha, Postemergence
  Plant response rating, Morningglory: 9
[2]; Rate 250 g/ha, Preemergence
  Plant response rating, Morningglory: 6
[3]; Rate 62 g/ha, Postemergence
  Plant response rating, Wheat: 4
[3]; Rate 62 g/ha, Preemergence
  Wheat plant response rating: 0
[3]; Rate 125 g/ha, Postemergence
  Plant response rating, Wheat: 4
[3]; Rate 125 g/ha, Preemergence
  Wheat plant response rating: 0
[3]; Rate 250 g/ha, Postemergence
  Plant response rating, Wheat: 5
[3]; Rate 250 g/ha, Preemergence
  Plant response rating, Wheat: 2
[4]; Rate 62 g/ha, Postemergence
  Plant response rating, Redroot pigweed: 8
[4]; Rate 62 g/ha, Preemergence
  Redroot pigweed plant response rating: 7
[4]; Rate 125 g/ha, Postemergence
  Plant response rating, Redroot pigweed: 9
[4]; Rate 125 g/ha, Preemergence
  Redroot pigweed plant response rating: 8
[4]; Rate 250 g/ha, Postemergence
  Plant response rating, Redroot pigweed: 10
[4]; Rate 250 g/ha, Preemergence
  Plant response rating, Redroot pigweed: 9
[5]; Rate 62 g/ha, Postemergence
  Plant response rating, Sugarbeets: 9
[5]; Rate 62 g/ha, Preemergence
  Sugarbeets plant response rating: 7
[5]; Rate 125 g/ha, Postemergence
  Plant response rating, Sugarbeets: 9
[5]; Rate 125 g/ha, Preemergence
  Sugarbeets plant response rating: 8
[5]; Rate 250 g/ha, Postemergence
  Plant response rating, Sugarbeets: 10
[5]; Rate 250 g/ha, Preemergence
  Plant response rating, Sugarbeets: 10
[6]; Rate 62 g/ha, Postemergence
  Plant response rating, B. signalgrass: 3
[6]; Rate 62 g/ha, Preemergence
  B. signalgrass plant response rating: 2
[6]; Rate 125 g/ha, Postemergence
  Plant response rating, B. signalgrass: 4
[6]; Rate 125 g/ha, Preemergence
  B. signalgrass plant response rating: 3
[6]; Rate 250 g/ha, Postemergence
  Plant response rating, B. signalgrass: 7
[6]; Rate 250 g/ha, Preemergence
  Plant response rating, B. signalgrass: 8
[7]; Rate 62 g/ha, Postemergence
  Plant response rating, Velvetleaf: 7
[7]; Rate 62 g/ha, Preemergence
  Velvetleaf plant response rating: 4
[7]; Rate 125 g/ha, Postemergence
  Plant response rating, Velvetleaf: 8
[7]; Rate 125 g/ha, Preemergence
  Velvetleaf plant response rating: 8
[7]; Rate 250 g/ha, Postemergence
  Plant response rating, Velvetleaf: 9
[7]; Rate 250 g/ha, Preemergence
  Plant response rating, Velvetleaf: 10
[8]; Rate 62 g/ha, Postemergence
  Plant response rating, Corn: 3
[8]; Rate 62 g/ha, Preemergence
  Corn plant response rating: 0
[8]; Rate 125 g/ha, Postemergence
  Plant response rating, Corn: 3
[8]; Rate 125 g/ha, Preemergence
  Corn plant response rating: 0
[8]; Rate 250 g/ha, Postemergence
  Plant response rating, Corn: 4
[8]; Rate 250 g/ha, Preemergence
  Plant response rating, Corn: 1
[9]; Rate 62 g/ha, Postemergence
  Plant response rating, Rape: 9
[9]; Rate 62 g/ha, Preemergence
  Rape plant response rating: 2
[9]; Rate 125 g/ha, Postemergence
  Plant response rating, Rape: 10
[9]; Rate 125 g/ha, Preemergence
  Rape plant response rating: 3
[9]; Rate 250 g/ha, Postemergence
  Plant response rating, Rape: 10
[9]; Rate 250 g/ha, Preemergence
  Plant response rating, Rape: 5
[10]; Rate 62 g/ha, Postemergence
  Plant response rating, Cocklebur: 7
[10]; Rate 62 g/ha, Preemergence
  Cocklebur plant response rating: 0
[10]; Rate 125 g/ha, Postemergence
  Plant response rating, Cocklebur: 8
[10]; Rate 125 g/ha, Preemergence
  Cocklebur plant response rating: 0
[10]; Rate 250 g/ha, Postemergence
  Plant response rating, Cocklebur: 8
[10]; Rate 250 g/ha, Preemergence
  Plant response rating, Cocklebur: 0
[11]; Rate 62 g/ha, Postemergence
  Plant response rating, Giant foxtail: 1
[11]; Rate 62 g/ha, Preemergence
  Giant foxtail plant response rating: 5
[11]; Rate 125 g/ha, Postemergence
  Plant response rating, Giant foxtail: 8
[11]; Rate 125 g/ha, Preemergence
  Giant foxtail plant response rating: 8
[11]; Rate 250 g/ha, Postemergence
  Plant response rating, Giant foxtail: 9
[11]; Rate 250 g/ha, Preemergence
  Plant response rating, Giant foxtail: 9
[12]; [16]
  Plant response rating, S. Flatsedge: 6
[12]; [17]
  Plant response rating, S. Flatsedge: 8
[12]; [18]
  Plant response rating, S. Flatsedge: 9
[13]; [16]
  Plant response rating, Rice: 3
[13]; [17]
  Plant response rating, Rice: 4
[13]; [18]
  Plant response rating, Rice: 5
[14]; [16]
  Plant response rating, Barnyardgrass: 3
[14]; [17]
  Plant response rating, Barnyardgrass: 4
[14]; [18]
  Plant response rating, Barnyardgrass: 4
[15]; [16]
  Plant response rating, Ducksalad: 3
[15]; [17]
  Plant response rating, Ducksalad: 4
[15]; [18]
  Plant response rating, Ducksalad: 5

## CCc1cnc(-c2ccc(C(F)(F)F)cc2)nc1Cc1cccc(C(F)(F)F)c1 [Compound 22]
[1]; Rate 62 g/ha, Preemergence
  Bedstraw plant response rating: 6
[1]; Rate 125 g/ha, Postemergence
  Plant response rating, Bedstraw: 8
[1]; Rate 125 g/ha, Preemergence
  Bedstraw plant response rating: 7
[1]; Rate 250 g/ha, Postemergence
  Plant response rating, Bedstraw: 8
[1]; Rate 250 g/ha, Preemergence
  Plant response rating, Bedstraw: 7
[2]; Rate 62 g/ha, Postemergence
  Plant response rating, Morningglory: 10
[2]; Rate 62 g/ha, Preemergence
  Morningglory plant response rating: 3
[2]; Rate 125 g/ha, Postemergence
  Plant response rating, Morningglory: 10
[2]; Rate 125 g/ha, Preemergence
  Morningglory plant response rating: 10
[2]; Rate 250 g/ha, Postemergence
  Plant response rating, Morningglory: 10
[2]; Rate 250 g/ha, Preemergence
  Plant response rating, Morningglory: 10
[3]; Rate 62 g/ha, Postemergence
  Plant response rating, Wheat: 4
[3]; Rate 62 g/ha, Preemergence
  Wheat plant response rating: 2
[3]; Rate 125 g/ha, Postemergence
  Plant response rating, Wheat: 4
[3]; Rate 125 g/ha, Preemergence
  Wheat plant response rating: 2
[3]; Rate 250 g/ha, Postemergence
  Plant response rating, Wheat: 6
[3]; Rate 250 g/ha, Preemergence
  Plant response rating, Wheat: 4
[4]; Rate 62 g/ha, Postemergence
  Plant response rating, Redroot pigweed: 10
[4]; Rate 62 g/ha, Preemergence
  Redroot pigweed plant response rating: 9
[4]; Rate 125 g/ha, Postemergence
  Plant response rating, Redroot pigweed: 10
[4]; Rate 125 g/ha, Preemergence
  Redroot pigweed plant response rating: 10
[4]; Rate 250 g/ha, Postemergence
  Plant response rating, Redroot pigweed: 10
[4]; Rate 250 g/ha, Preemergence
  Plant response rating, Redroot pigweed: 10
[5]; Rate 62 g/ha, Postemergence
  Plant response rating, Sugarbeets: 10
[5]; Rate 62 g/ha, Preemergence
  Sugarbeets plant response rating: 9
[5]; Rate 125 g/ha, Postemergence
  Plant response rating, Sugarbeets: 10
[5]; Rate 125 g/ha, Preemergence
  Sugarbeets plant response rating: 9
[5]; Rate 250 g/ha, Postemergence
  Plant response rating, Sugarbeets: 10
[5]; Rate 250 g/ha, Preemergence
  Plant response rating, Sugarbeets: 10
[6]; Rate 62 g/ha, Postemergence
  Plant response rating, B. signalgrass: 5
[6]; Rate 62 g/ha, Preemergence
  B. signalgrass plant response rating: 5
[6]; Rate 125 g/ha, Postemergence
  Plant response rating, B. signalgrass: 7
[6]; Rate 125 g/ha, Preemergence
  B. signalgrass plant response rating: 9
[6]; Rate 250 g/ha, Postemergence
  Plant response rating, B. signalgrass: 7
[6]; Rate 250 g/ha, Preemergence
  Plant response rating, B. signalgrass: 9
[7]; Rate 62 g/ha, Postemergence
  Plant response rating, Velvetleaf: 8
[7]; Rate 62 g/ha, Preemergence
  Velvetleaf plant response rating: 8
[7]; Rate 125 g/ha, Postemergence
  Plant response rating, Velvetleaf: 8
[7]; Rate 125 g/ha, Preemergence
  Velvetleaf plant response rating: 8
[7]; Rate 250 g/ha, Postemergence
  Plant response rating, Velvetleaf: 9
[7]; Rate 250 g/ha, Preemergence
  Plant response rating, Velvetleaf: 8
[8]; Rate 62 g/ha, Postemergence
  Plant response rating, Corn: 3
[8]; Rate 62 g/ha, Preemergence
  Corn plant response rating: 0
[8]; Rate 125 g/ha, Postemergence
  Plant response rating, Corn: 3
[8]; Rate 125 g/ha, Preemergence
  Corn plant response rating: 0
[8]; Rate 250 g/ha, Postemergence
  Plant response rating, Corn: 4
[8]; Rate 250 g/ha, Preemergence
  Plant response rating, Corn: 2
[9]; Rate 62 g/ha, Postemergence
  Plant response rating, Rape: 10
[9]; Rate 62 g/ha, Preemergence
  Rape plant response rating: 5
[9]; Rate 125 g/ha, Postemergence
  Plant response rating, Rape: 10
[9]; Rate 125 g/ha, Preemergence
  Rape plant response rating: 7
[9]; Rate 250 g/ha, Postemergence
  Plant response rating, Rape: 10
[9]; Rate 250 g/ha, Preemergence
  Plant response rating, Rape: 10
[10]; Rate 62 g/ha, Postemergence
  Plant response rating, Cocklebur: 8
[10]; Rate 62 g/ha, Preemergence
  Cocklebur plant response rating: 1
[10]; Rate 125 g/ha, Postemergence
  Plant response rating, Cocklebur: 8
[10]; Rate 125 g/ha, Preemergence
  Cocklebur plant response rating: 1
[10]; Rate 250 g/ha, Postemergence
  Plant response rating, Cocklebur: 8
[10]; Rate 250 g/ha, Preemergence
  Plant response rating, Cocklebur: 2
[11]; Rate 62 g/ha, Postemergence
  Plant response rating, Giant foxtail: 6
[11]; Rate 62 g/ha, Preemergence
  Giant foxtail plant response rating: 9
[11]; Rate 125 g/ha, Postemergence
  Plant response rating, Giant foxtail: 6
[11]; Rate 125 g/ha, Preemergence
  Giant foxtail plant response rating: 10
[11]; Rate 250 g/ha, Postemergence
  Plant response rating, Giant foxtail: 8
[11]; Rate 250 g/ha, Preemergence
  Plant response rating, Giant foxtail: 10
[12]; [16]
  Plant response rating, S. Flatsedge: 3
[12]; [17]
  Plant response rating, S. Flatsedge: 8
[12]; [18]
  Plant response rating, S. Flatsedge: 9
[13]; [16]
  Plant response rating, Rice: 3
[13]; [17]
  Plant response rating, Rice: 4
[13]; [18]
  Plant response rating, Rice: 5
[14]; [16]
  Plant response rating, Barnyardgrass: 4
[14]; [17]
  Plant response rating, Barnyardgrass: 5
[14]; [18]
  Plant response rating, Barnyardgrass: 6
[15]; [16]
  Plant response rating, Ducksalad: 3
[15]; [17]
  Plant response rating, Ducksalad: 4
[15]; [18]
  Plant response rating, Ducksalad: 6

Reference: patent publication US6525001B1, “Substituted pyrimidine and pyridine herbicides” (Mid-American Commercialization Corporation, priority 1997, dated 2003)
